Reference: ChEMBL document CHEMBL5390201, “The Natural Alkaloid (-)-N-Hydroxyapiosporamide Suppresses Colorectal Tumor Progression as an NF-κB Pathway Inhibitor by Targeting the TAK1-TRAF6 Complex” (J Nat Prod, 2023)
The source made the active and inactive calls. The calls are words filed in the database; no cut-off is given here.

Experiments:
[1] = Toxicity in athymic nude BALB/c mouse xenografted with human HT-29 cells assessed as pathological changes in liver at 5 to 15 mg/kg, ip administered every other day and measured after 14 days by hematoxylin and eosin staining-based microscopic analysis; format: organism-based; settings: in vivo, 336 h, dose 5-15 mg/kg, time 14 day
HT-29 = test: Induction of autophagy in human HT-29 cells assessed as increase in autophagic vesicles at 1 to 10 uM incubated for 24 hrs MDC staining-based fluorescence microscopy; format: functional, cell-based; settings: dose 1-10 µM

C[C@@H]1CC[C@H]2[C@H](C(=O)c3c(O)c([C@@]4(O)CC[C@@H](O)[C@H]5O[C@H]54)cn(O)c3=O)[C@H](C)C=C[C@@H]2C1
Activity [1]: Non-Toxic
Activity (HT-29): Active
